Publication PMC6812009, “Covalent Aurora A regulation by the metabolic integrator coenzyme A” (Redox Biology, 2019)

Columns and labels:
Assay in all cases: Kinase profiling screen (radioactive filter-binding assay)
Format in all cases: biochemical
LKB1 = target: T1, LKB1 (Homo sapiens, UniProt Q15831); conditions: 100 μM compound, 20 μM ATP; read-out: Kinase activity, % of activity in the absence of inhibitor
T1 sequence (Q15831 1-433): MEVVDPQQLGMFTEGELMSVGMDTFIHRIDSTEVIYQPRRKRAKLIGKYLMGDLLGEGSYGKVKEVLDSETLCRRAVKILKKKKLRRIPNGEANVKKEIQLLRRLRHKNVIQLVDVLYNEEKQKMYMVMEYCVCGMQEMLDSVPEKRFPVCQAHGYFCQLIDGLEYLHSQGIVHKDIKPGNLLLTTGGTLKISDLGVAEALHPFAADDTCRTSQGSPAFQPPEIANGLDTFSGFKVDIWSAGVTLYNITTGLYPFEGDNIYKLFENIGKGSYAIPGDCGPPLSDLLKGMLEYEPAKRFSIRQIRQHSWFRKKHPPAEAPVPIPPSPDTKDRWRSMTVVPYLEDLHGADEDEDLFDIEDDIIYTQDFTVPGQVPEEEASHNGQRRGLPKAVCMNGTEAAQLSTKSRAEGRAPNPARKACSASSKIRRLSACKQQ
T1 sequence (Q7RTN6 1-431 partner): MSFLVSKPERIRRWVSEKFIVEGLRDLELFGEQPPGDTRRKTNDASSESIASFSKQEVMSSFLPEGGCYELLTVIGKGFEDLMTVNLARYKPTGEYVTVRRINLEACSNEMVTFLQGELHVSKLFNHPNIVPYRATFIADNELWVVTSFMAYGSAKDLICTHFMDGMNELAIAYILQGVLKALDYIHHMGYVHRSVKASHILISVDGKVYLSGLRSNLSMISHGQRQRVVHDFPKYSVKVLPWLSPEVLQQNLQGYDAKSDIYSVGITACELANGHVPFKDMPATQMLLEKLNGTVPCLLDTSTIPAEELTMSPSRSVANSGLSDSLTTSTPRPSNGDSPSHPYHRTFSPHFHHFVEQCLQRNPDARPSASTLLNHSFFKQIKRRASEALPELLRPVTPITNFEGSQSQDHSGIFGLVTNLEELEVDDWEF
T1 sequence (Q9Y376 1-341 partner): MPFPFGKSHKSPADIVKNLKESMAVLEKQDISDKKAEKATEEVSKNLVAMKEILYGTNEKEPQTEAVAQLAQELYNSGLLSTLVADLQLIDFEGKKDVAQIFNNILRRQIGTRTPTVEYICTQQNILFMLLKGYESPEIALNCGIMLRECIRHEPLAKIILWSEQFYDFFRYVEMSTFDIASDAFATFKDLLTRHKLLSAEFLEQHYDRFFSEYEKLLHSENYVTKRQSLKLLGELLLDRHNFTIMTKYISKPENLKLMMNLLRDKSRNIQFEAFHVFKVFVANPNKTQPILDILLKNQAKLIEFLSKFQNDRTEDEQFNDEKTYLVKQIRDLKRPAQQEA
Method: (§1) Profiling of 117 protein kinases with CoA, dpCoA and ADP was carried out at the International Centre for Protein Kinase Profiling at the University of Dundee. Each compound was tested in vitro, in duplicate, at 100 μM final concentration using recombinant kinases, model substrates and optimal concentrations of ATP. Bacterially expressed full-length His-Aurora A was used to determine the IC50 value for CoA (in the presence or absence of DTT), dpCoA, ADP and desulfo-CoA. The assay was performed in the presence of 5 μM competing ATP. To examine whether the inhibitory effect of CoA on Aurora A is modulated by TPX2, IC50 values for CoA were also generated in the presence and absence of 1 μg TPX2 (residues 1–43) fragment.

RSK2 = RSK2 (Homo sapiens, UniProt P51812); conditions: 100 μM compound, 50 μM ATP; read-out: Kinase activity, % of activity in the absence of inhibitor
Chain of RSK2 (P51812 whole entry): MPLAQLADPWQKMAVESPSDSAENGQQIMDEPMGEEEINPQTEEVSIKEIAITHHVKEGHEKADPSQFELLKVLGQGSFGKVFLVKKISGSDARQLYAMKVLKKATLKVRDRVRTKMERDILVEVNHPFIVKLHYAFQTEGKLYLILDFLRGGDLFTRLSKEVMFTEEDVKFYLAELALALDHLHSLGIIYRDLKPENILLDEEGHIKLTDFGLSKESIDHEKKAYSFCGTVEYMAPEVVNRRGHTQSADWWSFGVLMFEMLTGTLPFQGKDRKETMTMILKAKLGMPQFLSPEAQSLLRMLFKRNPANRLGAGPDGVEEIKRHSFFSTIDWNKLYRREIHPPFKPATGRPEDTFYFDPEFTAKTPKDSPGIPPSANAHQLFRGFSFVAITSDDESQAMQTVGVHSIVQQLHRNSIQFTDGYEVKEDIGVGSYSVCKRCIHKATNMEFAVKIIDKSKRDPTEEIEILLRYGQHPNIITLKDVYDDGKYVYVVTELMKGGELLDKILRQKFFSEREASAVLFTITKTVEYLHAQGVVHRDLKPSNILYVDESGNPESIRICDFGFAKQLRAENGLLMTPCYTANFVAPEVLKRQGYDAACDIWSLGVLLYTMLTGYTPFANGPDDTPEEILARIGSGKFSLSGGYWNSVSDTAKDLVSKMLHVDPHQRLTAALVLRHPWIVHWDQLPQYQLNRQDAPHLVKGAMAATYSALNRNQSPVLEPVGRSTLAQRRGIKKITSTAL
Method: as §1

TTK = target: T2, TTK (Homo sapiens, UniProt P33981); conditions: 100 μM compound, 20 μM ATP; read-out: Kinase activity, % of activity in the absence of inhibitor
T2 sequence (P33981 1-857): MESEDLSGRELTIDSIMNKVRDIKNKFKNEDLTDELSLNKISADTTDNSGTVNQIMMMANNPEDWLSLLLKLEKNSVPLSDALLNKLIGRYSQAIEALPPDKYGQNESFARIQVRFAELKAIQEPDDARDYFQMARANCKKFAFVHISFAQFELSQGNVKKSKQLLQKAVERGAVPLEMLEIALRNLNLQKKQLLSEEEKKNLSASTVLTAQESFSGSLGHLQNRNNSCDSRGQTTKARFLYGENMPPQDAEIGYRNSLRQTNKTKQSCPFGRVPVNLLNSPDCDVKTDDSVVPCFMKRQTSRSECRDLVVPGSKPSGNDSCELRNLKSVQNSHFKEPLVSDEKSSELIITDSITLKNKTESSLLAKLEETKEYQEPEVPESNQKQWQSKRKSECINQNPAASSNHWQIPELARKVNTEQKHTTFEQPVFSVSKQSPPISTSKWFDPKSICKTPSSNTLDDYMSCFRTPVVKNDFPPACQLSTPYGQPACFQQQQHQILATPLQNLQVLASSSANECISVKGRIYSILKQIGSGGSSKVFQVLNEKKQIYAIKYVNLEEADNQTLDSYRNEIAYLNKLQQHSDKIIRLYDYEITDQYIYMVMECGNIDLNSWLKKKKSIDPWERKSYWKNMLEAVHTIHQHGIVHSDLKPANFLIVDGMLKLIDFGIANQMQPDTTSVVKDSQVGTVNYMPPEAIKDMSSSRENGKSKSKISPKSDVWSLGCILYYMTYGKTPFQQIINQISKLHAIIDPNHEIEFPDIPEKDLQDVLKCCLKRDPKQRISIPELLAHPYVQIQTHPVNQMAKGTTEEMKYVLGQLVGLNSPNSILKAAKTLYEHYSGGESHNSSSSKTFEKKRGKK
Method: as §1

| SMILES | activity at 100 µM (LKB1) [%] | activity at 100 µM (RSK2) [%] | activity at 100 µM (TTK) [%] |
| --- | --- | --- | --- |
| CC(C)(COP(=O)(O)OP(=O)(O)OC[C@H]1O[C@@H](n2cnc3c(N)ncnc32)[C@H](O)[C@@H]1OP(=O)(O)O)[C@@H](O)C(=O)NCCC(=O)NCCS [CoA, Coenzyme A] | 103 | 96.5 | 101 |
| CC(C)(COP(=O)(O)OP(=O)(O)OCC1OC(n2cnc3c(N)ncnc32)C(O)C1O)C(O)C(=O)NCCC(=O)NCCS (stereo not drawn) [dpCoA, dephospho-CoA] | 81.1 | 62.9 | 75.8 |
| Nc1ncnc2c1ncn2C1OC(COP(=O)(O)OP(=O)(O)O)C(O)C1O (stereo not drawn) [ADP] | 71 | 47.9 | 54.7 |
